From ChEMBL document CHEMBL1142841, “Synthesis and evaluation of anti-HIV activity of isatin beta-thiosemicarbazone derivatives” (Bioorg Med Chem Lett, 2005)

Assays:
[1] = tested on: Human immunodeficiency virus; test: Ratio of CC50 required to reduce the viability of mock-infected human CEM cells to EC50 required to inhibit HTLV-III B induced cytopathicity in that cells; type: functional, Human immunodeficiency virus 1, CCRF-CEM
[2] = tested on: CCRF-CEM; test: Concentration required to reduce the viability of mock-infected human CEM cells; type: functional
[3] = tested on: Human immunodeficiency virus; test: Effective concentration required to inhibit HTLV-III B induced cytopathicity in human CEM cells; type: functional, organism-based; conditions: Human immunodeficiency virus 1, CCRF-CEM

SMILES | Selectivity index [1] | CC50 [2] [µM] | EC50 [3] [µM]
CCN(CC)C(=S)N/N=C1\C(=O)N(CN2CCN(c3cccc(C(F)(F)F)c3)CC2)c2ccccc21 | 17.14 | 44.9 | 2.62
CCN(CC)C(=S)N/N=C1\C(=O)N(CN2CCN(c3ncccn3)CC2)c2ccccc21 | <1 | 12.8 | > 12.8
CCN(CC)C(=S)N/N=C1\C(=O)N(CN2CC(C)OC(C)C2)c2ccccc21 (stereo not given) | <1 | 13.3 | > 13.3
CCN(CC)C(=S)N/N=C1\C(=O)N(CN2CCN(c3cc4c(cc3F)c(=O)c(C(=O)O)cn4CC)CC2)c2ccccc21 | 12.02 | 37.5 | 3.12
CCN(CC)C(=S)N/N=C1\C(=O)N(CN(Cc2ccccc2)Cc2ccccc2)c2ccccc21 | <1 | 8.29 | > 8.29
CCN(CC)C(=S)N/N=C1\C(=O)N(CN(C)C)c2ccccc21 | <1 | 2.86 | > 2.86
CCN(CC)C(=S)N/N=C1\C(=O)N(CN2CCN(Cc3ccccc3)CC2)c2ccccc21 | 4.12 | 14 | 3.4
CCN(CC)C(=S)N/N=C1\C(=O)N(CN2CCN(c3ccc(F)cc3)CC2)c2ccccc21 | <1 | 14.5 | > 14.5
CCN(CC)C(=S)N/N=C1\C(=O)N(CN2CCN(c3ccc([N+](=O)[O-])cc3)CC2)c2ccccc21 | <1 | 11.9 | > 11.9
O=C1Nc2ccc(Cl)cc2[C@@](C#CC2CC2)(C(F)(F)F)O1 [EFAVIRENZ] | >256 | > 200 | 0.78
